Experimental data as given in US20250122173A1, “MODULATORS OF RHO-ASSOCIATED PROTEIN KINASE” (Redx Pharma Limited, priority 2022, published 2025).

Experiments:
ROCK2 = molecular target: T1, ROCK2 (Homo sapiens, UniProt O75116); experiment: ROCK2 inhibition assay (ADP-Glo kinase assay, called ROCK2 binding activity); type: biochemical; details: 20 μM ATP, 1 hour pre-incubation, read-out: ROCK 2 (IC50 category)
T1 construct: N-terminal 6His-tagged ROCK2 catalytic domain 11-552; 6His (N); purchased Dundee University, UK; host or cells: baculovirus expression system
T1 sequence (O75116 11-552): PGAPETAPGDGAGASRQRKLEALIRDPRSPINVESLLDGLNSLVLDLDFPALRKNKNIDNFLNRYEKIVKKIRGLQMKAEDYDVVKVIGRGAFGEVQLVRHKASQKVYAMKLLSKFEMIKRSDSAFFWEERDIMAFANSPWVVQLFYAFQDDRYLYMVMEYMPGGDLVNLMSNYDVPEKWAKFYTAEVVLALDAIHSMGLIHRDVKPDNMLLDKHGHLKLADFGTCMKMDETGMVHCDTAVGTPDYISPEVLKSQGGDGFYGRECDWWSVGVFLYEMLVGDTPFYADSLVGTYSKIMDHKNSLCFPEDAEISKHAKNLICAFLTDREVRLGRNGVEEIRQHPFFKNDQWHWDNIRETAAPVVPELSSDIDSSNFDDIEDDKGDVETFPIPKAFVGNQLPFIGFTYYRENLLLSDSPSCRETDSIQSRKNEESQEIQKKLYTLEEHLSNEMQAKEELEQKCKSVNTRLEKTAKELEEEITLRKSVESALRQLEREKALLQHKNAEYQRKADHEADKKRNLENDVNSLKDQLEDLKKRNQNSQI
Protocol: ROCK2 Binding Activity: Assay for ROCK2 inhibition was performed using the protein construct N-terminal 6His-tagged ROCK2 catalytic domain 11-552 (Dundee University, UK). Protein was purified from a baculovirus expression system. Long S6 peptide ([…]) was used as substrate. Kinase reactions were carried out in 15 μl volume in a 96-well plate (black, half area) using 1.25 nM constitutively active ROCK2 kinase, 100 μM long S6 peptide, 20 μM ATP and test compound in DMSO (or DMSO only for controls). The final concentration of DMSO was 1%. Assay buffer was 50 mM HEPES pH 7.5 supplemented with 0.2 mM EDTA, 10 mM magnesium acetate, 0.01% Tween-20, 1 mM DTT and 0.01% BSA. Test compounds were pre-incubated with ROCK2 kinase for 1 hour before addition of ATP and long S6 peptide. After incubation for a further 1 hour, the amount of ADP produced was measured using ADP-Glo Kinase Assay (Promega) as per manufacturer's instructions. The luminescence was measured on a PHERAstar FS (BMG Labtech). The concentration of test compound required to inhibit ADP production by 50% (the IC50) was calculated using a four-parameter logistic function with software by Dotmatics. […] The category “+” refers to compounds with a ROCK2 or ROCK1 IC50 value of >10 μM. The category “++” refers to compounds with a ROCK2 or ROCK1 IC50 value of 10 to 3 μM. The category “+++” refers to compounds with a ROCK1 or ROCK2 IC50 value of 3 to 0.3 μM. The category “++++” refers to compounds with a ROCK1 or ROCK2 IC50 value of <0.3 μM.

ROCK1 = ROCK1 (Homo sapiens, UniProt Q13464); experiment: ROCK1 inhibition assay (ROCK1 binding activity, as determined by the assay described for ROCK2); type: biochemical; details: read-out: ROCK 1 (IC50 category)
Chain of ROCK1 (Q13464 whole entry, the tested form may be a part): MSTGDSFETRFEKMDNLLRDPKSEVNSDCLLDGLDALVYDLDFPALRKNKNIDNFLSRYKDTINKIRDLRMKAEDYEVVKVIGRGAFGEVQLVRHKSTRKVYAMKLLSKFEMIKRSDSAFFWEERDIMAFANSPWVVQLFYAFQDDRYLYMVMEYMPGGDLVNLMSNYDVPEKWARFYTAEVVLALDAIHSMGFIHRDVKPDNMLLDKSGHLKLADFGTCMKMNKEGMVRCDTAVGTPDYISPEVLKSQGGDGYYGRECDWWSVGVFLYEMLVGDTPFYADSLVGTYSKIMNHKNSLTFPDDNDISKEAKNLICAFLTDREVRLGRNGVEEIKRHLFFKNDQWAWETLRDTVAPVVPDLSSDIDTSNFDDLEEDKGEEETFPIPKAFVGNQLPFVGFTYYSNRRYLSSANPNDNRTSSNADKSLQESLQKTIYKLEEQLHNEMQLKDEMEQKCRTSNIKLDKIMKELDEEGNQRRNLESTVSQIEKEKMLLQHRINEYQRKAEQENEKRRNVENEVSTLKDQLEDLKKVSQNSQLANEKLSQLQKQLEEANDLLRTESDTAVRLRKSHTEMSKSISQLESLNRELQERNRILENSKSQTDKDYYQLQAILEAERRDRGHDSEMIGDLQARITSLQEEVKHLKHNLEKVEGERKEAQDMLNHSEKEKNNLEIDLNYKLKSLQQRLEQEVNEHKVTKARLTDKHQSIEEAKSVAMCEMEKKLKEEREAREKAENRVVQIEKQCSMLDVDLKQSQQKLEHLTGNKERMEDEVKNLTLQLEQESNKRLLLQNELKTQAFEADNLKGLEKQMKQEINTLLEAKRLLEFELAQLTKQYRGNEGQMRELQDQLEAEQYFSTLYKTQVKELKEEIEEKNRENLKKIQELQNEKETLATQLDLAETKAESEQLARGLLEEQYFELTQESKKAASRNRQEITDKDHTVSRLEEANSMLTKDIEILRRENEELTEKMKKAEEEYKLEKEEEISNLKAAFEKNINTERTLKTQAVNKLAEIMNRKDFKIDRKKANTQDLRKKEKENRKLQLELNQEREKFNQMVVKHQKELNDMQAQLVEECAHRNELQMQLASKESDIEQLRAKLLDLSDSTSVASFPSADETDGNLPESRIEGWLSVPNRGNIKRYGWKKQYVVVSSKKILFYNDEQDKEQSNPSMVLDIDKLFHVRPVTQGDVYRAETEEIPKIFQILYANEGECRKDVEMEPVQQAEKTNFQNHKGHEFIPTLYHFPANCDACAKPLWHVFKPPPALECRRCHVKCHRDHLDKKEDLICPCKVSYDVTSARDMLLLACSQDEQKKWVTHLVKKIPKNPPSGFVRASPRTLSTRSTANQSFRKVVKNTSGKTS
Protocol: Assay for ROCK2 inhibition was performed using the protein construct N-terminal 6His-tagged ROCK2 catalytic domain 11-552 (Dundee University, UK). Protein was purified from a baculovirus expression system. Long S6 peptide ([…]) was used as substrate. Kinase reactions were carried out in 15 μl volume in a 96-well plate (black, half area) using 1.25 nM constitutively active ROCK2 kinase, 100 μM long S6 peptide, 20 μM ATP and test compound in DMSO (or DMSO only for controls). The final concentration of DMSO was 1%. Assay buffer was 50 mM HEPES pH 7.5 supplemented with 0.2 mM EDTA, 10 mM magnesium acetate, 0.01% Tween-20, 1 mM DTT and 0.01% BSA. Test compounds were pre-incubated with ROCK2 kinase for 1 hour before addition of ATP and long S6 peptide. After incubation for a further 1 hour, the amount of ADP produced was measured using ADP-Glo Kinase Assay (Promega) as per manufacturer's instructions. The luminescence was measured on a PHERAstar FS (BMG Labtech). The concentration of test compound required to inhibit ADP production by 50% (the IC50) was calculated using a four-parameter logistic function with software by Dotmatics. […] The category “+” refers to compounds with a ROCK2 or ROCK1 IC50 value of >10 μM. The category “++” refers to compounds with a ROCK2 or ROCK1 IC50 value of 10 to 3 μM. The category “+++” refers to compounds with a ROCK1 or ROCK2 IC50 value of 3 to 0.3 μM. The category “++++” refers to compounds with a ROCK1 or ROCK2 IC50 value of <0.3 μM.

IC50 (ROCK2) [µM]	IC50 (ROCK1) [µM]	Structure (SMILES)
< 0.3	3 to 10	CCn1nc(-c2cc(C)c(-c3cn(C)c(C4CC4)n3)cc2C)nc1Nc1ccc2c(c1)C(C)NC2=O (centres unmarked) [Example 99]
< 0.3	> 10	CCn1nc(-c2ccc(-c3ccc(C)c(C)n3)c(C)c2)nc1Nc1cc2c(cc1C)C(=O)NC2C (centres unmarked) [Example 100]
< 0.3	3 to 10	CCn1nc(-c2ccc(-c3cc(C)cc(C)n3)c(C)c2)nc1Nc1cc2c(cc1C)C(=O)NC2C (centres unmarked) [Example 101]
< 0.3	0.3 to 3	CCn1nc(-c2ccc(-c3ccc(C)nc3)cc2)nc1Nc1cc2c(cc1C)C(=O)NC2 [Example 102]
< 0.3	3 to 10	CCn1nc(-c2ccc(-c3ccc(C4CC4)cn3)c(C)c2)nc1Nc1cc2c(cc1C)C(=O)NC2C (centres unmarked) [Example 103]
< 0.3	3 to 10	CCn1nc(-c2ccc(-c3ccc(C)cn3)cc2)nc1Nc1cc2c(cc1C)C(=O)NC2C (centres unmarked) [Example 104]
< 0.3	3 to 10	CCn1nc(-c2cnc(-c3ccc(C4CC4)cc3)c(C)c2)nc1Nc1cc2c(cc1C)C(=O)NC2C (centres unmarked) [Example 105]
< 0.3	3 to 10	CCn1nc(-c2cc(C)c(-c3ccc(C4CC4)nc3)cc2F)nc1Nc1ccc2c(c1)C(C)NC2=O (centres unmarked) [Example 106]
3 to 10	> 10	CCn1nc(-c2ccc(-c3nc(C)ccc3C)c(C)c2)nc1Nc1cc2c(cc1C)C(=O)NC2C (centres unmarked) [Example 107]
< 0.3	3 to 10	CCn1nc(-c2ccc(-c3cn(C)c(C4CC4)n3)c(F)c2)nc1Nc1ccc2c(c1)C(C)NC2=O (centres unmarked) [Example 108]
< 0.3	3 to 10	CCn1nc(-c2cc(C)c(-c3ccc(C4CC4)cn3)cc2F)nc1Nc1cc2c(cc1C)C(=O)NC2C (centres unmarked) [Example 109]
< 0.3	> 10	CCn1nc(-c2ccc(-c3ccc(C)nc3)nc2)nc1Nc1ccc2c(c1)C(C)NC2=O (centres unmarked) [Example 110]
< 0.3	> 10	CCn1nc(-c2cc(C)c(-c3ccc(C4CC4)nc3)cc2C)nc1Nc1ccc2c(c1)C(C)NC2=O (centres unmarked) [Example 111]
< 0.3	> 10	CCn1nc(-c2ccc(-c3ccc(C4CC4)cn3)c(C)c2)nc1Nc1ccc2c(c1)C(C)NC2=O (centres unmarked) [Example 112]
< 0.3	3 to 10	CCn1nc(-c2cc(C)c(-c3cn(C)c(C4CC4)n3)cc2F)nc1Nc1ccc2c(c1)C(C)NC2=O (centres unmarked) [Example 113]
< 0.3	> 10	CCn1nc(-c2cc(C)c(-c3ccc(C4CC4)cn3)cc2C)nc1Nc1cc2c(cc1C)C(=O)NC2C (centres unmarked) [Example 114]
< 0.3	> 10	CCn1nc(-c2ccc(-c3ccc(C)nc3)c(C(=O)OC)c2)nc1Nc1cc2c(cc1C)C(=O)NC2C (centres unmarked) [Example 115]
< 0.3	> 10	CCn1nc(-c2ccc(C3=CCN(CC(F)(F)F)C3)c(C)c2)nc1Nc1cc2c(cc1C)C(=O)NC2C (centres unmarked) [Example 118]
0.3 to 3	> 10	CCn1nc(-c2ccc(-c3ccc(C)nc3)c(C(C)(C)O)c2)nc1Nc1cc2c(cc1C)C(=O)NC2C (centres unmarked) [Example 119]
< 0.3	> 10	CCn1nc(-c2cc(C)c(-c3ccc(C)cn3)cc2F)nc1Nc1cc2c(cc1C)C(=O)NC2C (centres unmarked) [Example 120]
< 0.3	> 10	CCn1nc(-c2cnc(-c3ccc(C4CC4)nc3)c(C)c2)nc1Nc1cc2c(cc1C)C(=O)NC2C (centres unmarked) [Example 121]
< 0.3	3 to 10	CCn1nc(-c2ccc(-c3cn(C)c(C4CC4)n3)cc2C)nc1Nc1cc2c(cc1C)C(=O)NC2C (centres unmarked) [Example 122]

IC50 (ROCK2) [µM]	IC50 (ROCK1) [µM]	Structure (SMILES)
0.3 to 3	> 10	CCn1nc(-c2ccc(C3CCN(CC(F)(F)F)CC3)cc2)nc1Nc1cc2c(cc1C)C(=O)NC2C (centres unmarked) [Example 123]
< 0.3	3 to 10	CCn1nc(-c2ccc(-c3ccn(CC(F)(F)F)c3)cc2)nc1Nc1cc2c(cc1C)C(=O)NC2C (centres unmarked) [Example 124]
< 0.3	> 10	CCn1nc(-c2ccc(-c3ccc(C)nc3)c(C(C)=O)c2)nc1Nc1cc2c(cc1C)C(=O)NC2C (centres unmarked) [Example 125]
< 0.3	3 to 10	CCn1nc(-c2ccc(-n3cnc(C4CC4)c3)cc2C)nc1Nc1cc2c(cc1C)C(=O)NC2C (centres unmarked) [Example 126]
0.3 to 3	0.3 to 3	CCn1nc(-c2ccc(C3CCN(C(C)C(F)(F)F)CC3)cc2)nc1Nc1cc2c(cc1C)C(=O)NC2C (centres unmarked) [Example 127]
> 10	> 10	CCn1nc(-c2ccc(C3CCN(C)CC3)cc2C)nc1Nc1cc2c(cc1C)C(=O)NC2C (centres unmarked) [Example 128]
< 0.3	3 to 10	CCn1nc(-c2ccc(-c3ccn(C)c3)c(C)c2)nc1Nc1cc2c(cc1C)C(=O)NC2C (centres unmarked) [Example 129]
< 0.3	3 to 10	CCn1nc(-c2ccc(-c3ccc(C4CC4)nc3)cc2)nc1Nc1cc2c(cc1F)C(=O)NC2C (centres unmarked) [Example 130]
< 0.3	> 10	CCn1nc(-c2ccc(C3CCN(CC(F)(F)F)CC3)cc2C)nc1Nc1cc2c(cc1C)C(=O)NC2C (centres unmarked) [Example 131]
< 0.3	3 to 10	CCn1nc(-c2ccc(-c3ccc(C)nc3)cc2F)nc1Nc1cc2c(cc1C)C(=O)NC2C (centres unmarked) [Example 132]
< 0.3	> 10	CCn1nc(-c2cc(C)c(-c3ccc(C)cn3)cc2C)nc1Nc1ccc2c(c1)C(C)NC2=O (centres unmarked) [Example 133]
< 0.3	> 10	CCn1nc(-c2cc(C)c(-c3ccc(C4CC4)cn3)cc2F)nc1Nc1ccc2c(c1)C(C)NC2=O (centres unmarked) [Example 134]
< 0.3	> 10	CCn1nc(-c2cc(C)c(-c3ccc(C4CC4)cn3)cc2C)nc1Nc1ccc2c(c1)C(C)NC2=O (centres unmarked) [Example 135]
< 0.3	3 to 10	CCn1nc(-c2ccc(-c3ccn(C)c3)cc2)nc1Nc1cc2c(cc1C)C(=O)NC2C (centres unmarked) [Example 136]
< 0.3	0.3 to 3	CCn1nc(-c2ccc(-c3ccc(C4CC4)cn3)nc2)nc1Nc1cc2c(cc1C)C(=O)NC2C (centres unmarked) [Example 137]
< 0.3	> 10	CCn1nc(-c2ccc(C3CCN(CC(F)(F)F)C3)c(C)c2)nc1Nc1cc2c(cc1C)C(=O)NC2C (centres unmarked) [Example 138]
< 0.3	0.3 to 3	CCn1nc(-c2ccc(-c3ccn(CC(F)(F)F)c3)c(C)c2)nc1Nc1cc2c(cc1C)C(=O)NC2C (centres unmarked) [Example 139]
> 10	> 10	CCn1nc(-c2ccc(C3CCCN(C)C3)c(C)c2)nc1Nc1cc2c(cc1C)C(=O)NC2C (centres unmarked) [Example 140]
3 to 10	> 10	CCn1nc(-c2ccc(C3CCNCC3)c(C)c2)nc1Nc1cc2c(cc1C)C(=O)NC2C (centres unmarked) [Example 141]
> 10	> 10	CCn1nc(-c2ccc(C3CCN(C)CC3)cc2)nc1Nc1cc2c(cc1C)C(=O)NC2C (centres unmarked) [Example 142]
0.3 to 3	> 10	CCn1nc(-c2ccc(C3CCCN(CC(F)(F)F)C3)cc2)nc1Nc1cc2c(cc1F)C(=O)NC2C (centres unmarked) [Example 143]
> 10	> 10	CCn1nc(-c2ccc(C3CCN(C)CC3)c(C)c2)nc1Nc1cc2c(cc1C)C(=O)NC2C (centres unmarked) [Example 144]

Structure (SMILES)	IC50 (ROCK2) [µM]	IC50 (ROCK1) [µM]
CCn1nc(-c2ccc(C3=CCN(C)CC3)cc2)nc1Nc1cc2c(cc1C)C(=O)NC2C (centres unmarked) [Example 116]	3 to 10	> 10
CCn1nc(-c2ccc(C3=CCN(C)CC3)cc2C)nc1Nc1cc2c(cc1C)C(=O)NC2C (centres unmarked) [Example 117]	0.3 to 3	> 10
